# From patent US20250000989A1, “PYRROLO BENZODIAZEPINE DERIVATIVE, AND CONJUGATE, PREPARATION METHOD AND USE THEREOF” (priority 2021, published 2025)
# Legend:
# Assay in all cases: Inhibition of in vitro proliferation of tumor cells by PBD compounds (CTG)
# Assay type in all cases: cell-based
# [1] = test system: MKN45 (human gastric cancer cells); conditions: MKN-45, 144 h, 6 days of culture
# Method: (§1) The objective of this assay is to measure the activity of the compounds of the present disclosure in inhibiting the proliferation of different tumor cell lines: SK-BR-3 tumor cells (human breast cancer cells, ATCC, Cat. No. HTB-30), NCI-H23 (human non-small cell lung cancer cells, Nanjing Cobioer, Cat. No. CBP60132), and MKN45 (human gastric cancer cells, Nanjing Cobioer, Cat. No. CBP60488). The cells were treated in vitro with different concentrations of the compounds. After 6 days of culture, the proliferation of the cells was measured using CTG (CellTiter-Glo® Luminescent Cell Viability Assay, Promega, Cat. No. G7573) reagent, and the in vitro activity of the compounds was evaluated based on their IC50 values.
# (§2) • 1. Cell culture: SK-BR-3, NCI-H23, and MKN45 cells were separately cultured in McCoy's 5A medium (ThermoFisher, Cat. No. 16600108) and RPMI 1640 medium (ThermoFisher, Cat. No. 11875119) containing 10% FBS (Gibco, 10099-141). • 2. Cell plating: After being digested with trypsin (0.25% Trypsin-EDTA (1×), Life Technologies, Cat. No. 25200-072), the SK-BR-3, NCI-H23, and MKN45 were resuspended in their respective media and counted. The density was adjusted to 1.48×10^4 cells/mL, and the cells were plated onto 96-well plates (corning, Cat. No. 3903) at 135 μL/well, i.e., 2000 cells/well, and cultured at 37° C. for 24 h. • 3. Drug formulation: PBD drugs were formulated in round-bottom 96-well plates. Plate 1: In the first column, the concentration was 0.05 mM; in the second column through the fourth column, a 3-fold serial dilution was performed in DMSO; in the fifth column through the sixth column, a 5-fold serial dilution was performed in DMSO; in the seventh column through the ninth column, a 10-fold serial dilution was performed in DMSO; and the tenth column contained DMSO. Plate 2: Corresponding media were added to the first column through the tenth column at 196 μL/well; 4 μL of solution was transferred from each well of the first column through the tenth column of plate 1 to plate 2 and well mixed with the medium; 15 μL of the mixture was added to the cells plated the day before, and the cells were cultured at 37° C. for another 6 days. • 4. CTG assay: The cell culture plates were taken out and equilibrated to room temperature. CTG was added at 75 μL/well, and the plates were incubated at room temperature in the dark for 10 min. Then luminescence values were measured on a microplate reader (BMG labtech, PHERAstar FS).
# [2] = test system: NCI-H23 (human non-small cell lung cancer cells); conditions: 144 h, 6 days of culture
# Method: as §1, §2
# [3] = test system: SK-BR-3 tumor cells (human breast cancer cells); conditions: 144 h, 6 days of culture
# Method: as §1, §2
Structure (SMILES),IC50 [1],IC50 [2],IC50 [3]
"COc1ccc(C2=CN3C(=O)c4cc(OC)c(OCCOCCOc5cc6c(cc5OC)C(=O)N5CC7(CC7)C[C@H]5C=N6)cc4NC[C@@H]3C2)cc1 [2-26, (S)-7-Methoxy-8-(2-(2-(((S)-7-methoxy-2-(4-methoxyphenyl)-5-oxo-5,10,11,11a-tetrahydro-1H-benzo[e]pyrrolo[1,2-a][1,4]diazepin-8-yl)oxy)ethoxy)ethoxy)-1,11a-dihydro-3H,5H-spiro[benzo[e]pyrrolo[1,2-a][1,4]diazepine-2,1′-cyclopropan]-5-one]",2.42 nM,2.98 nM,2.12 nM
"COc1cc2c(cc1OCCCCCOc1cc3c(cc1OC)C(=O)N1C=C(c4ccc(C5CCN(C)CC5)cc4)C[C@H]1CN3)N=C[C@@H]1CC3(CC3)CN1C2=O [2-6, (S)-7-Methoxy-8-((5-(((S)-7-methoxy-2-(4-(1-methylpiperidin-4-yl)phenyl)-5-oxo-5,10,11,11a-tetrahydro-1H-benzo[e]pyrrolo[1,2-a][1,4]diazepin-8-yl)oxy)pentyl)oxy)-1,11a-dihydro-3H,5H-spiro[benzo[e]pyrrolo[1,2-a][1,4]diazepine-2,1′-cyclopropan]-5-one]",0.06 nM,0.03 nM,0.24 nM
"COc1cc2c(cc1OCCCCCOc1cc3c(cc1OC)C(=O)N1C=C(c4ccc(C5CCN(C(C)=O)CC5)cc4)C[C@H]1CN3)N=C[C@@H]1CC3(CC3)CN1C2=O [2-11, (S)-8-((5-(((S)-2-(4-(1-Acetylpiperidin-4-yl)phenyl)-7-methoxy-5-oxo-5,10,11,11a-tetrahydro-1H-benzo[e]pyrrolo[1,2-a][1,4]diazepin-8-yl)oxy)pentyl)oxy)-7-methoxy-1,11a-dihydro-3H,5H-spiro[benzo[e]pyrrolo[1,2-a][1,4]diazepine-2,1′-cyclopropan]-5-one]",0.69 nM,0.11 nM,0.32 nM
"COc1ccc(C2=CN3C(=O)c4cc(OC)c(OCCCCCOc5cc6c(cc5OC)C(=O)N5CC7(CC7)C[C@H]5CN6)cc4NC[C@@H]3C2)cc1 [2-27, (S)-7-Methoxy-8-((5-(((S)-7-methoxy-2-(4-methoxyphenyl)-5-oxo-5,10,11,11a-tetrahydro-1H-benzo[e]pyrrolo[1,2-a][1,4]diazepin-8-yl)oxy)pentyl)oxy)-1,10,11,11a-tetrahydro-3H,5H-spiro[benzo[e]pyrrolo[1,2-a][1,4]diazepine-2,1′-cyclopropan]-5-one]",7.51 nM,7.28 nM,5 nM
"COc1cc2c(cc1OCCCCCOc1cc3c(cc1OC)C(=O)N1C=C(c4ccc(N5CCN(CCO)CC5)cc4)C[C@H]1CN3)N=C[C@@H]1CC3(CC3)CN1C2=O [2-30, (S)-8-((5-(((S)-2-(4-(4-(2-Hydroxyethyl)piperazin-1-yl)phenyl)-7-methoxy-5-oxo-5,10,11,11a-tetrahydro-1H-benzo[e]pyrrolo[1,2-a][1,4]diazepin-8-yl)oxy)pentyl)oxy)-7-methoxy-1,11a-dihydro-3H,5H-spiro[benzo[e]pyrrolo[1,2-a][1,4]diazepine-2,1′-cyclopropan]-5-one]",0.04 nM,0.02 nM,0.21 nM
"COc1cc2c(cc1OCCCCCOc1cc3c(cc1OC)C(=O)N1C=C(c4ccc(C5CCN(C(=O)CO)CC5)cc4)C[C@H]1CN3)N=C[C@@H]1CC3(CC3)CN1C2=O [2-10, (S)-8-((5-(((S)-2-(4-(1-(2-Hydroxyacetyl)piperidin-4-yl)phenyl)-7-methoxy-5-oxo-5,10,11,11a-tetrahydro-1H-benzo[e]pyrrolo[1,2-a][1,4]diazepin-8-yl)oxy)pentyl)oxy)-7-methoxy-1,11a-dihydro-3H,5H-spiro[benzo[e]pyrrolo[1,2-a][1,4]diazepine-2,1′-cyclopropan]-5-one]",0.61 nM,0.2 nM,0.63 nM
"COc1cc2c(cc1OCCCCCOc1cc3c(cc1OC)C(=O)N1C=C(c4ccc(N5CCN(C(=O)CO)CC5)cc4)C[C@H]1CN3)N=C[C@@H]1CC3(CC3)CN1C2=O [2-32, (S)-8-((5-(((S)-2-(4-(4-(2-Hydroxyacetyl)piperazin-1-yl)phenyl)-7-methoxy-5-oxo-5,10,11,11a-tetrahydro-1H-benzo[e]pyrrolo[1,2-a][1,4]diazepin-8-yl)oxy)pentyl)oxy)-7-methoxy-1,11a-dihydro-3H,5H-spiro[benzo[e]pyrrolo[1,2-a][1,4]diazepine-2,1′-cyclopropan]-5-one]",0.13 nM,0.09 nM,0.78 nM
"COc1cc2c(cc1OCCCCCOc1cc3c(cc1OC)C(=O)N1C=C(c4ccc(C5CCN(CCO)CC5)cc4)C[C@H]1CN3)N=C[C@@H]1CC3(CC3)CN1C2=O [2-9, (S)-8-((5-(((S)-2-(4-(1-(2-Hydroxyethyl)piperidin-4-yl)phenyl)-7-methoxy-5-oxo-5,10,11,11a-tetrahydro-1H-benzo[e]pyrrolo[1,2-a][1,4]diazepin-8-yl)oxy)pentyl)oxy)-7-methoxy-1,11a-dihydro-3H,5H-spiro[benzo[e]pyrrolo[1,2-a][1,4]diazepine-2,1′-cyclopropan]-5-one]",0.19 nM,0.23 nM,1.25 nM
"COc1cc2c(cc1OCCCCCOc1cc3c(cc1OC)C(=O)N1C=C(c4ccc(N5CCN(C)CC5)cc4)C[C@H]1CN3)N=C[C@@H]1CC3(CC3)CN1C2=O [2-1, (S)-7-Methoxy-8-((5-(((S)-7-methoxy-2-(4-(4-methylpiperazin-1-yl)phenyl)-5-oxo-5,10,11,11a-tetrahydro-1H-benzo[e]pyrrolo[1,2-a][1,4]diazepin-8-yl)oxy)pentyl)oxy)-1,11a-dihydro-3H,5H-spiro[benzo[e]pyrrolo[1,2-a][1,4]diazepine-2,1′-cyclopropan]-5-one]",0.02 nM,0.02 nM,0.07 nM
"COc1ccc(C2=CN3C(=O)c4cc(OC)c(OCCCCCOc5cc6c(cc5OC)C(=O)N5[C@H](C=N6)C[C@@H]6C[C@@H]65)cc4NC[C@@H]3C2)cc1 [2-21, (1aS,9aS,10aS)-5-Methoxy-6-((5-(((S)-7-methoxy-2-(4-methoxyphenyl)-5-oxo-5,10,11,11a-tetrahydro-1H-benzo[e]pyrrolo[1,2-a][1,4]diazepin-8-yl)oxy)pentyl)oxy)-1a,9a,10,10a-tetrahydrobenzo[e]cyclopropa[4,5]pyrrolo[1,2-a][1,4]diazepin-3(1H)-one]",0.57 nM,0.12 nM,0.28 nM
"COc1cc2c(cc1OCCCCCOc1cc3c(cc1OC)C(=O)N1C=C(c4ccc(SC5CCC5)cc4)C[C@H]1CN3)N=C[C@@H]1CC3(CC3)CN1C2=O [2-35, (S)-8-((5-(((S)-2-(4-(Cyclobutylthio)phenyl)-7-methoxy-5-oxo-5,10,11,11a-tetrahydro-1H-benzo[e]pyrrolo[1,2-a][1,4]diazepin-8-yl)oxy)pentyl)oxy)-7-methoxy-1,11a-dihydro-3H,5H-spiro[benzo[e]pyrrolo[1,2-a][1,4]diazepine-2,1′-cyclopropan]-5-one]",2.73 nM,0.84 nM,1.7 nM
